Assay [1] concerns the target T1, ULK1 kinase domain (Homo sapiens, UniProt O75385).
T1 construct: The protein expression construct of ULK1 kinase domain (1-283) was cloned; 6His-Sumo (N, cleaved yes); made in house; host or cells: E. coli BL21 star, co-expressed with lambda phosphatase
T1 sequence (O75385 1-283): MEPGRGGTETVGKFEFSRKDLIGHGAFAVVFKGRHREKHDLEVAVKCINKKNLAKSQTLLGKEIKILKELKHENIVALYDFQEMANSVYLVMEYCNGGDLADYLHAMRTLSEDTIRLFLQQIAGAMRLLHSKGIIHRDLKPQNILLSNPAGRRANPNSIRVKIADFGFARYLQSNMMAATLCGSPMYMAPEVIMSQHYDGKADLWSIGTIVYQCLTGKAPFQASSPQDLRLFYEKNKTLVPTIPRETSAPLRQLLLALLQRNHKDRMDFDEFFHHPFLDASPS
The experiment in a line: Differential scanning fluorimetry (thermal shift). Format: binding. As to conditions: 2 μM ULK1 kinase domain, 50 μM compound, vs DMSO reference. Background: DSF heats the sample and reads unfolding from a dye or from intrinsic fluorescence.

In assay [2] the target is T2, ULK1 kinase (Homo sapiens, UniProt O75385).
T2 construct: purchased Reaction Biology
T2 sequence (O75385 1-1050): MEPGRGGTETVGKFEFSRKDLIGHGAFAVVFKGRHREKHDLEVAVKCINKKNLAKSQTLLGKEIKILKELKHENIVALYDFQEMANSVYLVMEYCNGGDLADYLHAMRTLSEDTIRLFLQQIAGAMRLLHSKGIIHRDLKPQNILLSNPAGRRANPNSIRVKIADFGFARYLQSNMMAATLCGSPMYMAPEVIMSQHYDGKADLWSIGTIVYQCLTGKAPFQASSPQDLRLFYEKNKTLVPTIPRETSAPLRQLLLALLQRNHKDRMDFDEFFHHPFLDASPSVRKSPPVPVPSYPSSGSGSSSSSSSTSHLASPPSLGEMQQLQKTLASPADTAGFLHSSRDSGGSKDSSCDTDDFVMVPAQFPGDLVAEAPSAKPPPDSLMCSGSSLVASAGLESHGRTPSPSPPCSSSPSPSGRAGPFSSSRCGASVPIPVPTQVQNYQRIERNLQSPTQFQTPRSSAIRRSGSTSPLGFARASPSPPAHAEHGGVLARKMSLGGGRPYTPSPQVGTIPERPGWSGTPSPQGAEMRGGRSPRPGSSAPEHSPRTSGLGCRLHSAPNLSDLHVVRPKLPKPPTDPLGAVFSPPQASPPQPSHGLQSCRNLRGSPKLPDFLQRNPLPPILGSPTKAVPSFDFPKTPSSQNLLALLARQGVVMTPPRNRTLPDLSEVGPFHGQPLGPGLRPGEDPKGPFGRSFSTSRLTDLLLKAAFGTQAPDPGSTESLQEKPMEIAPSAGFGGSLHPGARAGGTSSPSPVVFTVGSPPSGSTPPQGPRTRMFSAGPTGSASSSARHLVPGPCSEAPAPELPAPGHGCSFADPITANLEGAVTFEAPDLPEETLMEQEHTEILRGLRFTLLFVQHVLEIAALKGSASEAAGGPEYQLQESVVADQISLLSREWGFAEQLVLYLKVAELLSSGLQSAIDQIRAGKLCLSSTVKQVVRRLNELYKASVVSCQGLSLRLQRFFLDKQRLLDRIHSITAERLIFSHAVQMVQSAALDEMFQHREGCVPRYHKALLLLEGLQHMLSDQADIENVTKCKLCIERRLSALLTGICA
The assay can be described thus: Radiometric HotSpot kinase assay (Reaction Biology). Format: biochemical. The conditions noted are these: activity-based ULK1 kinase assay.

Assay [3] concerns the target T3, GST-ULK1 (Homo sapiens, UniProt O75385).
T3 sequence (O75385 1-1050): T2 sequence (O75385 1-1050)
The experiment in a line: LanthaScreen ULK1 inhibitor assay. The conditions noted are these: 5 nM GST-ULK1, 30 nM tracer, 20 μM ATP, 1 hr room temperature. It counts as biochemical.

Assay [4] has as its target T4, ULK1-nanoluc (Homo sapiens, UniProt O75385).
T4 construct: host or cells: H2030 cells (ATCC)
T4 sequence (O75385 1-1050): T2 sequence (O75385 1-1050)
The assay can be described thus: NanoBRET target engagement in live cells. It counts as cell-based. As to conditions: H2030 cells transfected with ULK1-nanoluc, Tracer K10, 2 hr. For orientation: BRET reads energy transfer from a luciferase to a nearby fluorophore.

The structures appear in SMILES notation. pEC50, pIC50: −log10 of the molar value.

Consider 4 compounds from patent US20250042895A1, “INHIBITORS OF ULK1 AND METHODS OF USE” (H. LEE MOFFITT CANCER CENTER AND RESEARCH INSTITUTE, INC., priority 2021, published 2025).

With `O=C(NCC1(O)CCC1)c1nc(-c2cnc3[nH]c(-c4ccc(F)cc4)cc3c2)cs1` [Compound 70, 4-(2-(4-fluorophenyl)-1H-pyrrolo[2,3-b]pyridin-5-yl)-N-((1-hydroxycyclobutyl)methyl)thiazole-2-carboxamide], in assay [1], the ΔTm (as a rule, the shift of the melting midpoint relative to a reference) at 50 µM is 8.04 °C. For the same compound, the IC50 (commonly the point on the concentration scale where inhibition reaches its midpoint) in assay [2] was determined as 22 nM. Further, the pIC50 – broadly, the negative decadic logarithm of the IC50, by convention in mol/L – in assay [3] was 8.10. In addition, the pEC50 (usually −log10 of the EC50, conventionally taken in molar units) in assay [4] was 6.89.
Regarding `O=C(NCCF)c1nc(-c2cnc3[nH]c(-c4ccc(F)cc4)cc3c2)cs1` [Compound 78, N-(2-fluoroethyl)-4-(2-(4-fluoro-phenyl)-1H-pyrrolo[2,3-b]pyridin-5-yl)thiazole-2-carboxamide], in assay [1], the ΔTm at 50 µM came out at 4.83 °C. In assay [2], half-maximal inhibition (IC50) was put at 20 nM. This compound showed a negative-log IC50 (pIC50) in assay [3] of 7.57. Besides, the pEC50 in assay [4] was 6.55.
For the compound `O=C(NCC(O)C(F)(F)F)c1nc(-c2cnc3[nH]c(-c4ccc(F)cc4)cc3c2)cs1` (stereo not shown) [Compound 65, 4-(2-(4-Fluorophenyl)-1H-pyrrolo[2,3-b]pyridin-5-yl)-N-(3,3,3-trifluoro-2-hydroxy-propyl)thiazole-2-carboxamide], the ΔTm at 50 µM in assay [1] was 7.12 °C. Moreover, the IC50 in assay [2] stood at 29 nM. For the same compound, in assay [3], the pIC50 is 7.77. Besides, the pEC50 in assay [4] is 6.91.
For the compound `FC(F)(F)c1cnc2[nH]c(C3=CCOCC3)cc2c1NCCN1CCNCC1` [Compound 87, 2-(3,6-dihydro-2H-pyran-4-yl)-N-(2-(piperazin-1-yl)ethyl)-5-(trifluoromethyl)-1H-pyrrolo[2,3-b]pyridin-4-amine], in assay [1], the ΔTm at 50 µM was 12.5 °C. Also, 10 nM corresponded to half-maximal inhibition in assay [2] (IC50). Further, the pIC50 in assay [3] was 7.80. Besides, the negative-log EC50 (pEC50) in assay [4] was 7.12.
